The target of the experiment is Delta-5-Desaturase (D5D) (Homo sapiens (Human), UniProt O60427). As to the kind of experiment: In vitro measurement of Delta-5-Desaturase inhibitory activity using DGLA-CoA and Arachidonyl-CoA mass spectrometric assays. The note with it: membrane preparations of D5D-overexpressing HEK293 6E cells; averaged over at least two independent runs. The format is biochemical. The method in brief: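 DGLA-CoA and arachidonyl-CoA were read by RapidFire SPE triple-quad MS (negative mode, MRM) after a 1 h ambient-temperature reaction quenched with acetonitrile. Enzyme was D5D-overexpressing HEK293 6E membranes at 10 μg/mL final; substrate solution held 0.01 mM DGLA plus NADH, ATP and CoA. Inhibition was referenced to DMSO and no-enzyme wells; 4PL IC50.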
Chain of Delta-5-Desaturase (D5D) (O60427 whole entry, species assumed): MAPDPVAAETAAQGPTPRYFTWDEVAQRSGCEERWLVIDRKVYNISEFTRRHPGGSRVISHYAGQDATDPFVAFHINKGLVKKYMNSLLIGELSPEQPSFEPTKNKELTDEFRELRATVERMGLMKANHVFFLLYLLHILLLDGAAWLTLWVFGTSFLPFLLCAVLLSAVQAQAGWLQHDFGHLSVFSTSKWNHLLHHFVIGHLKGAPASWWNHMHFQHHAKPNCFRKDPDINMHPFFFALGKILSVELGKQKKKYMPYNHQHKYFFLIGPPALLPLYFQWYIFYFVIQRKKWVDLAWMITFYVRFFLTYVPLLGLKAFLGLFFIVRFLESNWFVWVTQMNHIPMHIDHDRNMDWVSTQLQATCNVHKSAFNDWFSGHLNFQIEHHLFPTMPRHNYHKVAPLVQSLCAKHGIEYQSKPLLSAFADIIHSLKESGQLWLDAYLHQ

The results in this text go back to US12473289B2, “Heterocyclic compounds as delta-5 desaturase inhibitors and methods of use” (Amgen Inc., priority 2019, dated 2025).

pIC50: −log10 of the molar value. Some results are limits rather than exact numbers.

Consider `O=c1c(-c2ccc(OCC(F)(F)F)cc2F)c(C(F)(F)F)nc2ccccn12` [Example 5-1, 3-(2-Fluoro-4-(2,2,2-trifluoroethoxy)phenyl)-2-(trifluoromethyl)-4H-pyrido[1,2-a]pyrimidin-4-one], for which the negative logarithm of the IC50 (pIC50) is 7.90.

As to `N#Cc1ccn2c(=O)c(-c3cnn(CC(F)(F)C(F)(F)F)c3)c(CF)nc2c1` [Example 1-86, 2-(fluoromethyl)-4-oxo-3-(1-(2,2,3,3,3-pentafluoropropyl)-1H-pyrazol-4-yl)-4H-pyrido[1,2-a]pyrimidine-8-carbonitrile], the pIC50 was 6.87.

The molecule `Cc1ccn2c(=O)c(-c3ccc(OCC(F)(F)F)cc3)c(C(F)(F)F)nc2c1` [Example 1-78, 8-methyl-3-(4-(2,2,2-trifluoroethoxy)phenyl)-2-(trifluoromethyl)-4H-pyrido[1,2-a]pyrimidin-4-one] gave a pIC50 of 8.57.

On to `COc1ccn2c(=O)c(-c3cnn(CC(F)(F)F)c3)c(C(F)(F)F)nc2c1` [Example 1-74, 8-methoxy-3-(1-(2,2,2-trifluoroethyl)-1H-pyrazol-4-yl)-2-(trifluoromethyl)-4H-pyrido[1,2-a]pyrimidin-4-one], for which the pIC50 was 7.56.

With `COc1ccn2c(=O)c(-c3cnn(CCCC(F)(F)F)c3)c(C(F)F)nc2c1` [Example 1-16, 2-(difluoromethyl)-8-methoxy-3-(1-(4,4,4-trifluorobutyl)-1H-pyrazol-4-yl)-4H-pyrido[1,2-a]pyrimidin-4-one], the pIC50 was 6.42.

Take `O=c1c(-c2cnn(CC(F)(F)C(F)(F)F)c2)c(C(F)(F)F)nc2ccc(C3CC3)cn12` [Example 39-21, 7-cyclopropyl-3-[1-(2,2,3,3,3-pentafluoropropyl)-1H-pyrazol-4-yl]-2-(trifluoromethyl)-4H-pyrido[1,2-a]pyrimidin-4-one]: the pIC50 is 6.96.

Turning to `Cc1ccc2nc(C(F)(F)F)c(-c3cnn(CCC(F)(F)F)c3)c(=O)n2n1` [Example 39-33, 7-methyl-2-(trifluoromethyl)-3-[1-(3,3,3-trifluoropropyl)-1H-pyrazol-4-yl]-4H-pyrimido[1,2-b]pyridazin-4-one], the pIC50 was 7.70.

The molecule `CNc1ccn2c(=O)c(-c3ccc(OCC(F)(F)F)cc3)c(C(F)(F)F)nc2n1` [Example 14-1, 8-(Methylamino)-3-(4-(2,2,2-trifluoroethoxy)phenyl)-2-(trifluoromethyl)-4H-pyrimido[1,2-a]pyrimidin-4-one] showed a negative-log IC50 (pIC50) of 7.39.

In the case of `COc1ccn2c(=O)c(-c3ccc(OCC(F)(F)C(F)(F)F)cc3)c(C(F)(F)F)nc2c1` [Example 22, 8-Methoxy-3-(4-(2,2,3,3,3-pentafluoropropoxy)phenyl)-2-(trifluoromethyl)-4H-pyrido[1,2-a]pyrimidin-4-one], the negative-log IC50 (pIC50) was 8.40.

As to `Cc1cc2nc(C(F)(F)F)c(-c3ccc(OCC(F)(F)F)cc3)c(=O)n2cc1Cl` [Example 41-3, 7-chloro-8-methyl-3-[4-(2,2,2-trifluoroethoxy)phenyl]-2-(trifluoromethyl)-4H-pyrido[1,2-a]pyrimidin-4-one], the negative-log IC50 (pIC50) was 6.62.

In turn, `[2H]C([2H])([2H])Oc1ccn2c(=O)c(-c3ccc(OCC(F)F)cc3)c(C(F)(F)F)nc2c1` [Example 1-52, 3-(4-(2,2-difluoroethoxy)phenyl)-8-(methyloxy-d3)-2-(trifluoromethyl)-4H-pyrido[1,2-a]pyrimidin-4-one] gave a negative-log IC50 (pIC50) of 8.25.

Consider `NCc1ccn2c(=O)c(-c3cnn(CC(F)(F)C(F)(F)F)c3)c(C(F)(F)F)nc2c1` [Example 16-2, 8-(aminomethyl)-3-(1-(2,2,3,3,3-pentafluoropropyl)-1H-pyrazol-4-yl)-2-(trifluoromethyl)-4H-pyrido[1,2-a]pyrimidin-4-one], for which the negative logarithm of the IC50 (pIC50) was 6.86.

`COc1ccn2c(=O)c(-c3ccc(OCC(F)(F)F)c(F)c3)c(C(F)F)nc2c1` [Example 1-12, 2-(difluoromethyl)-3-(3-fluoro-4-(2,2,2-trifluoroethoxy)phenyl)-8-methoxy-4H-pyrido[1,2-a]pyrimidin-4-one] had a negative logarithm of the IC50 (pIC50) of 8.00.

As for `CN(C)Cc1ccc2nc(C(F)(F)F)c(-c3cnn(CC(F)(F)C(F)(F)F)c3)c(=O)n2c1` [Example 39-29, 7-[(dimethylamino)methyl]-3-[1-(2,2,3,3,3-pentafluoropropyl)-1H-pyrazol-4-yl]-2-(trifluoromethyl)-4H-pyrido[1,2-a]pyrimidin-4-one], the negative logarithm of the IC50 (pIC50) was below 4.17.

The molecule `CS(=O)(=O)c1ccn2c(=O)c(-c3ccc(OCC(F)(F)F)cc3)c(C(F)(F)F)nc2c1` [Example 19, 8-(Methylsulfonyl)-3-(4-(2,2,2-trifluoroethoxy)phenyl)-2-(trifluoromethyl)-4H-pyrido[1,2-a]pyrimidin-4-one] showed a pIC50 of 5.00.

As to `N#Cc1ccc2nc(C(F)(F)F)c(-c3cnn(CC(F)(F)C(F)(F)F)c3)c(=O)n2c1` [Example 39-9, 4-oxo-3-[1-(2,2,3,3,3-pentafluoropropyl)-1H-pyrazol-4-yl]-2-(trifluoromethyl)-4H-pyrido[1,2-a]pyrimidine-7-carbonitrile], the negative logarithm of the IC50 (pIC50) is 7.33.

In the case of `COc1ccn2c(=O)c(-c3cc(CCC(F)(F)F)no3)c(C(F)(F)F)nc2c1` [Example 55, 8-Methoxy-2-(trifluoromethyl)-3-[3-(3,3,3-trifluoropropyl)-1,2-oxazol-5-yl]-4H-pyrido[1,2-a]pyrimidin-4-one], the negative-log IC50 (pIC50) is 8.06.

For `COc1ccn2c(=O)c(-c3ccc(O[C@H](C)C#N)cc3)c(C(F)(F)F)nc2n1` [Example 8-6, (2R)-2-(4-(8-methoxy-4-oxo-2-(trifluoromethyl)-4H-pyrimido[1,2-a]pyrimidin-3-yl)phenoxy)propanenitrile], the negative logarithm of the IC50 (pIC50) is 7.63.

Take `C[C@H](O)c1ccn2c(=O)c(-c3cnn(CC(F)(F)C(F)(F)F)c3)c(C(F)(F)F)nc2c1` [Example 31-2, 8-((1S)-1-hydroxyethyl)-3-(1-(2,2,3,3,3-pentafluoropropyl)-1H-pyrazol-4-yl)-2-(trifluoromethyl)-4H-pyrido[1,2-a]pyrimidin-4-one]: the pIC50 was 6.80.

Molecule `O=c1ccn2c(=O)c(-c3ccc(OCC(F)(F)F)cc3)c(C(F)(F)F)nc2[nH]1` [Example 10-3, 7-(4-(2,2,2-trifluoroethoxy)phenyl)-8-(trifluoromethyl)-2H-pyrimido[1,2-a]pyrimidine-2,6(1H)-dione] had a negative logarithm of the IC50 (pIC50) of 6.05.

Turning to `CC(=O)Nc1ccn2c(=O)c(-c3cnn(CC(F)(F)C(F)(F)F)c3)c(C(F)(F)F)nc2c1` [Example 1-82, N-(4-oxo-3-(1-(2,2,3,3,3-pentafluoropropyl)-1H-pyrazol-4-yl)-2-(trifluoromethyl)-4H-pyrido[1,2-a]pyrimidin-8-yl)acetamide], the negative logarithm of the IC50 (pIC50) was 7.25.

`COc1ccc2nc(C(F)(F)F)c(-c3cnn(CC(F)(F)C(F)(F)F)c3)c(=O)n2c1` [Example 39-6, 7-methoxy-3-[1-(2,2,3,3,3-pentafluoropropyl)-1H-pyrazol-4-yl]-2-(trifluoromethyl)-4H-pyrido[1,2-a]pyrimidin-4-one]: the negative logarithm of the IC50 (pIC50) is 6.94.

`C[S@@+]([O-])c1ccn2c(=O)c(-c3cnn(CC(F)(F)C(F)(F)F)c3)c(C(F)(F)F)nc2c1` [Example 15-6, 8-((R)-methylsulfinyl)-3-(1-(2,2,3,3,3-pentafluoropropyl)-1H-pyrazol-4-yl)-2-(trifluoromethyl)-4H-pyrido[1,2-a]pyrimidin-4-one] showed a pIC50 of 6.76.

Molecule `COc1cc2nc(C(F)(F)F)c(-c3cnn(CC(F)(F)C(F)(F)F)c3)c(=O)n2cn1` [Example 39-10, 8-methoxy-3-[1-(2,2,3,3,3-pentafluoropropyl)-1H-pyrazol-4-yl]-2-(trifluoromethyl)-4H-[1,3]diazino[1,6-a]pyrimidin-4-one] had a pIC50 of 8.20.

On to `COc1ccn2c(=O)c(-c3ccc(CC#N)cc3)c(C(F)(F)F)nc2c1` [Example 1-2, (4-(8-methoxy-4-oxo-2-(trifluoromethyl)-4H-pyrido[1,2-a]pyrimidin-3-yl)phenyl)acetonitrile], for which the pIC50 is 6.52.

`O=c1c(-c2cnn(CC(F)(F)C(F)(F)F)c2)c(C(F)(F)F)nc2ccc(F)cn12` [Example 39-23, 7-fluoro-3-[1-(2,2,3,3,3-pentafluoropropyl)-1H-pyrazol-4-yl]-2-(trifluoromethyl)-4H-pyrido[1,2-a]pyrimidin-4-one] showed a negative-log IC50 (pIC50) of 8.68.

As to `[2H]C([2H])([2H])c1ccn2c(=O)c(-c3ccc(OCC(F)(F)F)cc3)c(C(F)(F)F)nc2c1` [Example 2-5, 8-(methyl-d3)-3-(4-(2,2,2-trifluoroethoxy)phenyl)-2-(trifluoromethyl)-4H-pyrido[1,2-a]pyrimidin-4-one], the negative-log IC50 (pIC50) is 8.41.

Molecule `COc1ccn2c(=O)c(-c3cnn(CC4CC4)c3)c(C(F)(F)F)nc2c1` [Example 39-45, 3-[1-(cyclopropylmethyl)-1H-pyrazol-4-yl]-8-methoxy-2-(trifluoromethyl)-4H-pyrido[1,2-a]pyrimidin-4-one] showed a pIC50 of 7.32.

Regarding `COc1ccn2c(=O)c(-c3ccc(OCC(F)(F)F)cc3)c(C)nc2c1` [Example 1-67, 8-methoxy-2-methyl-3-(4-(2,2,2-trifluoroethoxy)phenyl)-4H-pyrido[1,2-a]pyrimidin-4-one], the negative logarithm of the IC50 (pIC50) was 7.47.

`[2H]C([2H])([2H])Oc1ccn2c(=O)c(-c3cnn(CCC(F)(F)F)c3)c(C(F)(F)F)nc2c1` [Example 1-61, 8-(methyloxy-d3)-2-(trifluoromethyl)-3-(1-(3,3,3-trifluoropropyl)-1H-pyrazol-4-yl)-4H-pyrido[1,2-a]pyrimidin-4-one] showed a negative-log IC50 (pIC50) of 7.94.

In the case of `Cc1cnc2nc(C(F)(F)F)c(-c3cnn(CC(F)(F)C(F)(F)F)c3)c(=O)n2c1` [Example 40-2, 7-methyl-3-[1-(2,2,3,3,3-pentafluoropropyl)-1H-pyrazol-4-yl]-2-(trifluoromethyl)-4H-[1,3]diazino[1,2-a]pyrimidin-4-one], the pIC50 was 7.29.

The pIC50 is the negative decadic logarithm of the IC50, by convention in mol/L. High values mean a small IC50, low ones a large IC50.
